Data reported in paper PMC6471062, “Suppression of the Ubiquitin Pathway by Small Molecule Binding to Ubiquitin Enhances Doxorubicin Sensitivity of the Cancer Cells” (Molecules, 2019).

Experiments:
ubiquitin = ubiquitin (Homo sapiens, UniProt P0CG47); test: Intrinsic fluorescence quenching assay of ubiquitin; conditions: 50 µM ubiquitin, 0–500 µM compound, ex 274 nm / em 305 nm; read-out: Kd, dissociation constant upon binding to ubiquitin
Description: Intrinsic fluorescence quenching assays were performed as described previously. Briefly, intrinsic fluorescence quenching of ubiquitin by indicated compounds was observed by measuring the excitation and emission wavelength at 274 nm and 305 nm respectively of the mixture of 50 µM purified ubiquitin and 0–500 µM compound. Data were fitted to nonlinear regression curves with the equation described previously. F = −∆ε·[PC] + Fo(3) b = (Po + Co + Kd)(4) c = Po·Co(5) [PC] = [b − (b^2 − 4·c)^1/2]/2(6) where Fo and F are the normalized fluorescence intensity of the mixture of ubiquitin without the compound and with different concentrations of the compound, respectively. ∆ε is a difference in the extinction coefficient of the compound between their free and complex forms. [PC] is the concentration of protein/compound complex. Po and Co are the added concentration of ubiquitin and the compound, respectively in each experiment. Kd is the dissociation constant.

H1299 cells = test: Dox-induced K48- and K63-polyubiquitination in cells (immunofluorescence staining, Western blot); format: cell-based; conditions: H1299, 5 or 10 μM CR 12 h pretreatment, then 5 μM Dox 12 h
Description: Figure 6 CR inhibits Dox-induced ubiquitination in the cells. (a) Immunofluorescence staining of H1299 cells treated with or without 5 (+) and 10 (++) μM CR for 12 h followed by addition of Dox to a final concentration of 5 μM, with incubation for 12 h. The cells were subjected to immunofluorescence staining using the antibodies against K48 (αK48) and K63 polyubiquitins (αK63). (b) K48 or K63 polyubiquitin level in Figure 6a was quantified by fluorescence signal. At least seven random regions acquired in confocal images were sampled and normalized against DAPI intensity for quantification. (c) Immunoblots of samples in Figure 6a using the indicated antibodies. […] Statistical significance was calculated by the Student’s t-test (* p < 0.05, ** p < 0.01, *** p < 0.001).
Cells were seeded in the SPL 4 wells cell culture chamber slide 24 h before experiment. […] Subsequently, cells were incubated with primary antibody at 1/200 dilution in blocking buffer overnight and then washed with blocking buffer five times (5 min each) before incubation with fluorescence-conjugated secondary antibody at 1/200 dilution in blocking buffer for 1 h. […] Images acquired in confocal imaging were subjected to fluorescence intensity analysis using ImageJ [55]. Fluorescence signal representing a particular ubiquitin chain level was analyzed and normalized with the intensity of DAPI. […]

USP4 = test: TOP flash luciferase reporter assay of β-catenin with USP4; format: cell-based; conditions: HEK293T, CR 0–30 μM, 24 h
Description: Luciferase reporter assays were performed as described previously. Briefly, HEK293T cells were seeded in 12-well plates at 1 × 10^5 cells per well and incubated for 24 h before being transfected with either SRT-USP4 or Myc-β-catenin expression plasmids, along with the T cell factor (TCF) reporter plasmid (TOP flash) driving the expression of the luciferase gene. Equal amounts of total DNA in transfections were maintained by adding the control plasmids in each transfection experiment. 24 h post-transfection, cells were treated with CR (0–30 µM) for 24 h. After that, cells were harvested for luciferase reporter assays. Luciferase activity was measured according to the manufacturer’s instructions (Promega, Madison, WI, USA). page 5: (a) (b) Figure S5. CR inhibits USP4 deubiquitinase activity on its substrate, ß-catenin on the TOP flash reporter activity. (a) Cells were co-transfected with either SRT-USP4 or Myc‐β‐catenin expression plasmids, and TOP flash reporter plasmid containing a β‐catenin‐induced TCF reporter. 24-h post-transfection, CR was added at increasing concentrations (0 – 30 µM) and the cells were further cultured for 24 h. A top-flash activity assay of ß-catenin was conducted and (b) Western blot analysis with the indicated antibody was performed in parallel. […]

HCT116 cells [1] = test: Dox-induced cell death, colorimetric cell viability, HCT116; format: cell-based; conditions: 10 µM CR or 5 µM NSC697923 12 h, then Dox 1.25–5.0 μM 12 h
Description: (§1) Figure 7 CR enhances Dox sensitivity of cancer cells. (a,b) Enhancement of Dox-induced apoptosis of cancer cells by CR treatment. Dox–induced apoptosis of H1299 (a) and HCT116 (b) was quantified by colorimetric cell viability after treating 10 µM CR for 12 h followed by 12h treatment of Dox (0.0–5.0 µM). […] Caspase activity was quantified by luminogenic caspase activity assay. […] All error bars represent the standard deviation from at least four independent experiments. Statistical significance was calculated by the Student’s t-test (** p < 0.01, *** p < 0.001).
(§2) Cell viability assays were performed as described previously. For the caspase assays, the media were removed, and cells were lysed in 200 µL lysis buffer containing 50 µL Caspase Glo 3/7 solution and incubated for 15 min. Results were observed by measuring the luminescence signal using KOMM-Nr (Berthold Technologies, Bad Wildbad, Germany) and normalized with the total protein concentration measured by the Bradford assay. […]
(§3) Figure S8. NSC697923 enhances Dox sensitivity of cancer cells. (a, b) Effect of NSC697923 to cancer cells’ viability in Dox treatment . Dox–induced cell death of H1299 ( a) and HCT116 ( b) was quantified by colorimetric cell viability assay after treating 5 µM NSC697923 for 12 h followed by 12h treatment of Dox (0.0 […]
NSC697923. Caspase activity was quantified by luminogenic caspase activity assay. All error bars represent the standard deviation from at least 4 independent experiments. *, P<0.05; **, P<0.01; ***, P<0.001.

HCT116 cells [2] = test: Luminogenic caspase activity assay (Caspase Glo 3/7), HCT116; format: cell-based; conditions: 10 µM CR or 5 µM NSC697923 with Dox
Description: as §1, §2, §3
NSC697923. Caspase activity was quantified by luminogenic caspase activity assay. […]

## Nc1c(/N=N/c2ccc(-c3ccc(/N=N/c4cc(S(=O)(=O)O)c5ccccc5c4N)cc3)cc2)cc(S(=O)(=O)O)c2ccccc12 [CR, Congo red]
ubiquitin
  Kd: 14.4 ± 1.27 µM
H1299 cells
  Effect on Dox-triggered K48 and K63 ubiquitination: suppressed Dox-triggered ubiquitination in both K48 and K63
USP4
  Effect on USP4-enhanced β-catenin transcriptional activity (TOP flash): this enhancement was antagonized by CR treatment
HCT116 cells [1]
  Effect on Dox-induced cell death, HCT116: significantly enhanced Dox-induced cell death
HCT116 cells [2]
  Effect on caspase activity of Dox-treated HCT116 cells: Enhanced caspase activity
